The values that follow come from patent US11214556B1, “Method of treating colorectal cancer” (King Abdulaziz University, priority 2019, dated 2022).

Assay [1] concerns baby hamster kidney (BHK) cell lines. Nature of the assay: Cytotoxicity against normal baby hamster kidney cells. It counts as cell-based. The settings on record: 72 h. On the procedure: FIG. 3B is a graph illustrating the cytotoxic effect of 4112 against human colon adenocarcinoma cancer cells (HCT-116, Caco-2 and HT-29) vs. normal baby hamster kidney cells (BHK). All cells were exposed to different concentrations of 4112 for 72 h. The cell viability concentration curves were plotted, and the IC50 were determined. *denotes significance at P<0.001;
Based on the favorable pharmacologic and physicochemical properties of MOS-1512, it was selected as a new lead for the second subset of compounds (MOS-1812 to MOS-5112). The compounds in this series contained variable groups at R^1 and R^2 that were all tested against the three cancer cell lines (HCT-116, Caco-2 and HT-29). […]
The sulforhodamine B (SRB) assays were performed according to Skehan, P.; Storeng, R.; Scudiero, D.; Monks, A.; McMahon, J.; Vistica, D.; Warren, J. T.; Bokesch, H.; Kenney, S.; Boyd, M. R., New colorimetric cytotoxicity assay for anticancer-drug screening. […] Briefly, exponentially growing cells were trypsinized, counted and seeded at the appropriate densities (5000 cells/100 μL/well) into 96-well microtiter plates. […] The protein-bound dye was dissolved in 10 mM Tris base solution for (optical density) OD determination at 510 nm using a SpectraMax plus Microplate Reader (Molecular Devices, CA). […]

The test system of another assay is HCT-116 cells. Nature of the assay: ROS accumulation by DCFDA staining. The settings on record: 24 and 48 h, compared to untreated cells. It counts as cell-based, human. As to the method:
The elevation of oxidative stress inside cancer cells, consequent to treatment with 4112, was investigated via monitoring ROS release over time (24 and 48 h). In this test, the 2′,7′-dichlorofluorescin diacetate (DCFDA) dye was used to detect various ROS species and emit green fluorescence.
To determine the effect of the newly synthesized compounds on the cellular redox status, two different free radical sensitive probe dichlorofluorescin diacetate (DCFDA) was used. Cells were cultured on sterile 22 mm^2 cover slips (Harvard Apparatus, MA, USA) in sterile six well plates at a density of 2×10^5 cells/well. […] At the end of the exposure, cells attached to cover slips were washed thrice with PBS and incubated with DCFDA 10 μM for 30 min at 37° C. in the dark. Thereafter, cells were washed thrice with PBS and the cover slips were then mounted on a glass slide with anti-fade mounting medium containing 4′,6′-diamidino-2-phenylindole, dihydrochloride (DAPI) (Sigma-Aldrich, St. Louis, Mo., USA), which was used as counter stain and viewed with an epifluorescence microscope, Leica, DM 5500 B (Leica, Buffalo Grove, Ill., USA) at a magnification of 60×. Data were captured digitally and quantified using the microscope provided software.

Assay [2] deals with HT-29 colon cancer cell spheroids (cancer stem cells). Nature of the assay: Primary (1°) colonosphere formation assay. It counts as cell-based, human. On the procedure: Compound 4112 and another potent compound 3712 were also evaluated for their ability to inhibit cancer stem cell proliferation using a primary (1°) colonosphere formation assay. In this assay, HT-29 colon cancer cells were grown in low adhesion plates to form spheres as previously described. See Patel, N. J.; Karuturi, R.; Al-Horani, R. A.; Baranwal, S.; Patel, J.; Desai, U. R.; Patel, B. B., Synthetic, non-saccharide, glycosaminoglycan mimetics selectively target colon cancer stem cells. ACS Chem Biol 2014, 9 (8), 1826-33, incorporated herein by reference in its entirety. Wells treated with the inventive compounds were compared to vehicle treated cells for primary sphere growth inhibition after 5 days of incubation. […] Of note, monolayer growth conditions are ideally suited for examining cellular proliferation, whereas spheroid growth conditions examine cancer stem cell growth and self-renewal properties.
For primary sphere formation, cells were plated in nontreated, low adhesion, 96 wells plate at the concentration of 100 cells/100 μL/well in stem cell media (SCM) that consisted of DMEM:F12:AA (Gibco), supplemented with 1×B27 (Gibco), 20 ng/mL epidermal growth factor, and 10 ng/mL fibroblast growth factor (Sigma). After 4 h of incubation, vehicle (control) or 3712 and 4112 at the desired concentrations were added to each well (at least in triplicates for each sample). On day five, numbers of spheres ranging from […] in diameter were counted using phase contrast microscope and percent inhibition was calculated compared to control.

`CCCNC(=O)/C(=C/c1c[nH]c2ccccc12)NC(=O)/C=C/c1cccs1` [Compound 4112, (Z)-3-(1H-indol-3-yl)-N-propyl-2-[(E)-3-(thien-2-yl)acrylamidolacry]amide]: the IC50 (in general, the concentration that inhibits the measured activity by half) in assay [1] turned out to be 77.6 ± 6.2 µM; in assay [2] (HT-29 spheres, 5 days of incubation) it was 18.9 ± 1.1 µM. Further, the “accumulation of ROS” value in the assay with HCT-116 cells is “causes accumulation of ROS”. The “inhibition of colon cancer spheroids formation” value in assay [2] (spheroids >50 μm, 5 days) is given as “dose-dependent inhibition”.
